Reference: publication PMC12299890 (Pharmaceuticals, 2025)

Experiment: Serum concentration and pharmacokinetics of SCI after oral gavage in Wistar rats
Format: in vivo, Wistar rat
Experimental: All procedures were performed according to the Local Ethical Committee of Experiments on Animals guidelines in Olsztyn, Poland. The experiment was conducted in the same way as described by Antonowski et al.. Briefly, the experiment was performed on male Wistar rats (n = 6). Rats were maintained in ventilated rooms under a standard day photoperiod (12:12 h light–dark) as well as with lights on from 700 to 1900 h at 21 °C. All rats had free access to food and water. At 42 days of age, rats were randomized into experimental groups (Table 1 and Table 4).
Before the administration of cyclitol (10 mg/kg), the rats were fasting for 12 h (Table 1). […] Access to water was unlimited during the experiments. The study group (n = 6) was divided into two subgroups (n = 3 rats per subgroup). This practice allows for the use of only 6 rats for the entire experiment in accordance with the 3 Rs principle. Rats received the compound at a dose of 10 mg/kg body weight. Rats were weighed before starting the compound administration. Cyclitol was administered to the rats from the study group using a stainless-steel gastric tube with a ball tip (manufacturer—Agnthos, curved gastric tube, 16G, 3 mm tip, 75 mm). Cyclitol was dissolved in distilled water to a maximum volume of 1 mL. The prepared solution was administered to the animal.
Blood samples were collected into Eppendorf tubes and were centrifuged at 2500× g for 10 min at 8 °C the following day. Blood was harvested from the tail at a specific time. […] Serum was stored at −80 °C for subsequent analyses.
The analysis is described in detail by Antonowski and co-workers. Briefly, the first step was to remove the protein, then concentrate the sample in a speed vacuum evaporator to dryness. Next, samples were analyzed using the high-resolution gas chromatography method. We used a gas chromatograph GC2010Plus (Shimadzu, Tokyo, Japan) with a capillary column ZEBRON ZB-1 (15 m length, 0.25 mm diameter, and 0.1 μm film thickness, Phenomenex, Torrance, CA, USA). Helium was used as a carrier gas (at a flow rate of 1.18 mL min^−1). […] Finally, scyllo-inositol was quantified by using a standard.
The PK parameters were calculated using PK Solver. PKSolver is an add-in program for pharmacokinetic and pharmacodynamic data analysis […]. […] The area under the drug concentration–time curve from time zero to the time of the last quantifiable concentration (AUClast) was calculated using the trapezoidal rule. The volume over which the drug was distributed (Vd) and clearance (CL) were conducted by PK Solver. […] Nevertheless, we estimated K by log-linear regression analysis on data points on the terminal log-linear phase. Noncompartmental analysis is generally the preferred methodology to use in that it requires fewer assumptions than model-based approaches. We presented the results for individual rats, subgroups of rats, and for all subjects studied. The content of scyllo-inositol was calculated from the standard curves of appropriate components. To determine the terminal phase, […] was sufficient.
An analysis of all parameters was carried out with GraphPad Prism software (Version 10 Graph Pad Software Inc., La Jolla, CA, USA). Data are expressed as means ± SEM or individual data. Briefly, AUClast was calculated using the trapezoidal method. The T0.5 of oral administration was calculated as 0.693/K.

[1] = Mean of rats 1–3 ± SEM, serum, oral 10 mg/kg

Compound: O[C@H]1[C@H](O)[C@@H](O)[C@H](O)[C@@H](O)[C@@H]1O [SCI, scyllo-inositol]
- CL [1]: 0.112 ± 0.008 (95%CI: 0.145–0.079) L/h
- Vd [1]: 4.182 ± 2.287 (95%CI: 14.02–(−5.656)) L
- CL (Mean of rats 4–6 ± SEM, serum, oral 10 mg/kg): 0.216 ± 0.055 (95%CI: 0.451–(−0.02)) L/h
- CL (Rat No 1, serum, oral 10 mg/kg): 0.1 L/h
- Vd (Rat No 1, serum, oral 10 mg/kg): 0.039 L
- CL (Rat No 2, serum, oral 10 mg/kg): 0.11 L/h
- Vd (Rat No 2, serum, oral 10 mg/kg): 7.93 L
- CL (Rat No 3, serum, oral 10 mg/kg): 0.126 L/h
- Vd (Rat No 3, serum, oral 10 mg/kg): 4.578 L
- CL (Rat No 4, serum, oral 10 mg/kg): 0.325 L/h
- Vd (Rat No 4, serum, oral 10 mg/kg): 0.358 L
- CL (Rat No 5, serum, oral 10 mg/kg): 0.16 L/h
- Vd (Rat No 5, serum, oral 10 mg/kg): 0.9967 L
- CL (Rat No 6, serum, oral 10 mg/kg): 0.162 L/h
- Vd (Rat No 6, serum, oral 10 mg/kg): 0.566 L
- Concentration of SCI in serum (Rat No. 1, time 0 h, oral 10 mg/kg): BLQ
- Concentration of SCI in serum (Rat No. 1, time 0.25 h, oral 10 mg/kg): BLQ
- Concentration of SCI in serum (Rat No. 1, time 12 h, oral 10 mg/kg): BLQ
- Concentration of SCI in serum (Rat No. 1, time 24 h, oral 10 mg/kg): BLQ
- Concentration of SCI in serum (Rat No. 2, time 0 h, oral 10 mg/kg): BLQ
- Concentration of SCI in serum (Rat No. 2, time 0.25 h, oral 10 mg/kg): BLQ
- Concentration of SCI in serum (Rat No. 2, time 12 h, oral 10 mg/kg): BLQ
- Concentration of SCI in serum (Rat No. 2, time 24 h, oral 10 mg/kg): BLQ
- Concentration of SCI in serum (Rat No. 3, time 0 h, oral 10 mg/kg): BLQ
- Concentration of SCI in serum (Rat No. 3, time 0.25 h, oral 10 mg/kg): BLQ
- Concentration of SCI in serum (Rat No. 3, time 12 h, oral 10 mg/kg): BLQ
- Concentration of SCI in serum (Rat No. 3, time 24 h, oral 10 mg/kg): BLQ
- Concentration of SCI in serum (Rat No. 4, time 36 h, oral 10 mg/kg): BLQ
- Concentration of SCI in serum (Rat No. 4, time 48 h, oral 10 mg/kg): BLQ
- Concentration of SCI in serum (Rat No. 5, time 36 h, oral 10 mg/kg): BLQ
- Concentration of SCI in serum (Rat No. 5, time 48 h, oral 10 mg/kg): BLQ
- Concentration of SCI in serum (Rat No. 6, time 36 h, oral 10 mg/kg): BLQ
- Concentration of SCI in serum (Rat No. 6, time 48 h, oral 10 mg/kg): BLQ
- concentration at 0 min (male, Wistar, rat, serum, oral, 10 mg/kg, Mean concentration of SCI in serum, at the point of administration (0 min), rats 1–3): 0 ng/mL
- concentration at 0.5 h (male, Wistar, rat, serum, po, 10 mg/kg, Concentration of SCI in serum, Rat No. 1, oral 10 mg/kg): 1000 ng/mL
- concentration at 1 h (male, Wistar, rat, serum, po, 10 mg/kg, Concentration of SCI in serum, Rat No. 1, time 1 h, oral 10 mg/kg): 1600 ng/mL
- concentration at 1.5 h (male, Wistar, rat, serum, po, 10 mg/kg, Concentration of SCI in serum, Rat No. 1, time 1.5 h, oral 10 mg/kg): 7200 ng/mL
- concentration at 0.5 h (male, Wistar, rat, serum, po, 10 mg/kg, Concentration of SCI in serum, Rat No. 2, oral 10 mg/kg): 4600 ng/mL
- concentration at 1 h (male, Wistar, rat, serum, po, 10 mg/kg, Concentration of SCI in serum, Rat No. 2, time 1 h, oral 10 mg/kg): 5600 ng/mL
- concentration at 1.5 h (male, Wistar, rat, serum, po, 10 mg/kg, Concentration of SCI in serum, Rat No. 2, time 1.5 h, oral 10 mg/kg): 6200 ng/mL
- concentration at 0.5 h (male, Wistar, rat, serum, po, 10 mg/kg, Concentration of SCI in serum, Rat No. 3, oral 10 mg/kg): 5600 ng/mL
- concentration at 1 h (male, Wistar, rat, serum, po, 10 mg/kg, Concentration of SCI in serum, Rat No. 3, time 1 h, oral 10 mg/kg): 6800 ng/mL
- concentration at 1.5 h (male, Wistar, rat, serum, po, 10 mg/kg, Concentration of SCI in serum, Rat No. 3, time 1.5 h, oral 10 mg/kg): 4400 ng/mL
- concentration at 2 h (male, Wistar, rat, serum, po, 10 mg/kg, Concentration of SCI in serum, Rat No. 4, time 2 h, oral 10 mg/kg): 3200 ng/mL
- concentration at 4 h (male, Wistar, rat, serum, po, 10 mg/kg, Concentration of SCI in serum, Rat No. 4, time 4 h, oral 10 mg/kg): 600 ng/mL
- concentration at 8 h (male, Wistar, rat, serum, po, 10 mg/kg, Concentration of SCI in serum, Rat No. 4, time 8 h, oral 10 mg/kg): 400 ng/mL
- concentration at 2 h (male, Wistar, rat, serum, po, 10 mg/kg, Concentration of SCI in serum, Rat No. 5, time 2 h, oral 10 mg/kg): 3800 ng/mL
- concentration at 4 h (male, Wistar, rat, serum, po, 10 mg/kg, Concentration of SCI in serum, Rat No. 5, time 4 h, oral 10 mg/kg): 6100 ng/mL
- concentration at 8 h (male, Wistar, rat, serum, po, 10 mg/kg, Concentration of SCI in serum, Rat No. 5, time 8 h, oral 10 mg/kg): 200 ng/mL
- concentration at 2 h (male, Wistar, rat, serum, po, 10 mg/kg, Concentration of SCI in serum, Rat No. 6, time 2 h, oral 10 mg/kg): 5400 ng/mL
- concentration at 4 h (male, Wistar, rat, serum, po, 10 mg/kg, Concentration of SCI in serum, Rat No. 6, time 4 h, oral 10 mg/kg): 3600 ng/mL
- concentration at 8 h (male, Wistar, rat, serum, po, 10 mg/kg, Concentration of SCI in serum, Rat No. 6, time 8 h, oral 10 mg/kg): 400 ng/mL
- concentration at 30 min (male, Wistar, rat, serum, po, 10 mg/kg, Mean concentration of SCI in serum, 30 min after oral 10 mg/kg, mean of rats 1–3): 3730 ng/mL
- concentration at 1 h (male, Wistar, rat, serum, po, 10 mg/kg, Mean concentration of SCI in serum, 1 h after oral 10 mg/kg, mean of rats 1–3): 4670 ng/mL
- concentration at 1.5 h (male, Wistar, rat, serum, po, 10 mg/kg, Mean concentration of SCI in serum, 1.5 h after oral 10 mg/kg, mean of rats 1–3): 5930 ng/mL
- concentration at 2 h (male, Wistar, rat, serum, po, 10 mg/kg, Mean concentration of SCI in serum, 2 h after oral 10 mg/kg, mean of rats 4–6): 4130 ng/mL
- concentration at 4 h (male, Wistar, rat, serum, po, 10 mg/kg, Mean concentration of SCI in serum, 4 h after oral 10 mg/kg, mean of rats 4–6): 3430 ng/mL
- concentration at 8 h (male, Wistar, rat, serum, po, 10 mg/kg, Mean concentration of SCI in serum, 8 h after oral 10 mg/kg, mean of rats 4–6): 330 ng/mL
- concentration at 12 h (male, Wistar, rat, serum, po, 10 mg/kg, Mean concentration of SCI in serum, 12 h after oral 10 mg/kg, rats 1–3): 0 ng/mL
